From patent publication US20120077836A1, “METHODS OF ADMINISTERING (4AR,10AR)-1-N-PROPYL-1,2,3,4,4A,5,10,10A-OCTAHYDROBENZO [G] QUINOLINE-6,7-DIOL AND RELATED COMPOUNDS ACROSS THE ORAL MUCOSA, THE NASAL MUCOSA OR THE SKIN AND PHARMACEUTICAL COMPOSITIONS THEREOF” (priority 2009, published 2012)
Structures can show the parent of a compound that is named as a salt.

Legend:
[1] = system: rats with unilateral 6-OHDA lesions; experiment: Dyskinesia model with naive 6-OHDA rats (AIMS)
[2] = system: rats with unilateral 6-OHDA lesions; experiment: Rotation response in 6-OHDA rats after buccal delivery; type: in vivo, rat
[3] = molecular target: T1, human recombinant D1 receptor (Homo sapiens, UniProt P21728); experiment: D1 cAMP assay; type: cell-based
T1 construct: expressed in transfected cells
T1 sequence (P21728 whole entry): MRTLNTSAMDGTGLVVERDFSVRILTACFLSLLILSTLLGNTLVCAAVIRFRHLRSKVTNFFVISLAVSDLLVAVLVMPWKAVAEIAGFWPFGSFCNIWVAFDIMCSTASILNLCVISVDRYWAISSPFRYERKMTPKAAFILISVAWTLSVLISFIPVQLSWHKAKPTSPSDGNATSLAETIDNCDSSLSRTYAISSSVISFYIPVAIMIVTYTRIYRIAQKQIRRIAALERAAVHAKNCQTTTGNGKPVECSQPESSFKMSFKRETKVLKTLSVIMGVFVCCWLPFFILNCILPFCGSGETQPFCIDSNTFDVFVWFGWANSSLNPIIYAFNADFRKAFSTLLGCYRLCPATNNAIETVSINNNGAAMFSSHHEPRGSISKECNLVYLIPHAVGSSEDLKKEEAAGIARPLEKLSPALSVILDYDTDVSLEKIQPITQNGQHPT
Procedure: The ability of the compounds to either stimulate or inhibit the D1 receptor mediated cAMP formation in CHO cells stably expressing the human recombinant D1 receptor was measured as follows. Cells were seeded in 96-well plates at a concentration of 11000 cells/well 3 days prior to the experiment.

[4] = system: rats with unilateral 6-OHDA lesions; experiment: D1/D2 dissection, rotation response in rats with unilateral 6-OHDA lesions; type: in vivo, rat
Excerpt: Rats weighing 200-250 g were subjected to unilateral 6-OHDA lesions. […] Nemonapride is a D2 antagonist that blocks the D2 receptors, therefore any observed rotations would be dependent upon activity at the D1 receptors.

MPTP/AMPT mouse model = experiment: Superiority model, hypomotility in the MPTP/AMPT mouse model; type: in vivo; settings: for activity count (0.5-1.5 h): AMPT 250 mg/kg SC
Procedure: MPTP (1-methyl-4-phenyl-1,2,3,6-tetrahydropyridine) is a neurotoxin that causes permanent symptoms of Parkinson's disease by killing certain neurons in the substantia nigra of the brain. It is used to study the disease in monkeys and mice. […] Various compounds (all dosed subcutaneously) were tested for their ability to reverse the motility deficits produced in this model.

human D2 receptor = molecular target: T2, human D2 receptor (Homo sapiens, UniProt P14416); experiment: D2 cAMP assay; type: cell-based
T2 construct: expressed in transfected cells; host or cells: CHO cells
T2 sequence (P14416 whole entry): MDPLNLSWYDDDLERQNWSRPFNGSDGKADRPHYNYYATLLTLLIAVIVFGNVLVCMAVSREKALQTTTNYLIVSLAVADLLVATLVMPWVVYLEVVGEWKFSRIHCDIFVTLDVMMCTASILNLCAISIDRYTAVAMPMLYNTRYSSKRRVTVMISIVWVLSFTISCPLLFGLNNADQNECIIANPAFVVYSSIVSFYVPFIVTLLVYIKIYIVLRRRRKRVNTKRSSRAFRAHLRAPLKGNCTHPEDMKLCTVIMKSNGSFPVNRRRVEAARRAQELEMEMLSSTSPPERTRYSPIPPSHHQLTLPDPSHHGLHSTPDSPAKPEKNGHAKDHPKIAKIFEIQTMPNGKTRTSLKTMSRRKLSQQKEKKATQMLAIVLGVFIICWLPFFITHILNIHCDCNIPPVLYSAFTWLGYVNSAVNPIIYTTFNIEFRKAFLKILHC
Procedure: The ability of the compounds to either stimulate or inhibit the D2 receptor mediated inhibition of cAMP formation in CHO cells transfected with the human D2 receptor was measured as follows. Cells were seeded in 96 well plates at a concentration of 8000 cells/well 3 days prior to the experiment. On the day of the experiment the cells were washed once in preheated G buffer (1 mM MgCl2, 0.9 mM CaCl2, 1 mM IBMX in PBS) and the assay was initiated by addition of 100 micro-1 of a mixture of 1 micro-M quinpirole, 10 microM forskolin and test compound in G buffer (antagonism) or 10 micro-M forskolin and test compound in G buffer (agonism).

[5] = molecular target: T3, hD5-transfected CHO-Ga16 cells (Homo sapiens, UniProt P21918); experiment: D5 assay, intracellular Ca2+ release (FLIPR); type: cell-based
T3 construct: expressed in transfected cells; host or cells: CHO-Ga16 cells
T3 sequence (P21918 whole entry): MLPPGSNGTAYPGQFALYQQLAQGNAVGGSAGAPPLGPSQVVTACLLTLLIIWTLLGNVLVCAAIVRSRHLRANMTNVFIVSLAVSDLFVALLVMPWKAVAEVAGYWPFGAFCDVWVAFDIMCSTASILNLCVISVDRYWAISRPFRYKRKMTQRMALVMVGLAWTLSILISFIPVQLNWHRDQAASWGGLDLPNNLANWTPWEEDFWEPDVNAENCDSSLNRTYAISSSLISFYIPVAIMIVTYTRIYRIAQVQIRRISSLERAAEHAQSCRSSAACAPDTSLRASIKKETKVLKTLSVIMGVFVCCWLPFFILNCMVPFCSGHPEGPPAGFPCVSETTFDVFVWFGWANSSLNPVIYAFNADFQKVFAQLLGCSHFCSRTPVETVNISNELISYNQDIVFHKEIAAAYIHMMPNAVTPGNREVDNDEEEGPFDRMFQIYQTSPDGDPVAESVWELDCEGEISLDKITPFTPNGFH

MPTP treated marmosets = experiment: Anti-parkinsonian effects in MPTP-treated common marmosets; type: in vivo, common marmoset; design: disability score (120 min) / disability score (180 min) / disability score (240 min) / disability score (300 min) / disability score (360 min) / disability score (420 min) / disability score (60 min): scale not given here
Procedure: The experiments were conducted using 6 MPTP treated marmosets (2.0 mg/kg daily for up to 5 consecutive days dissolved in sterile 0.9% saline solution). All the animals had previously been treated with L-DOPA (12.5 mg/kg p.o., plus carbidopa 12.5 mg/kg p.o.) administered daily for up to 30 days in order to induce dyskinesia. […] Domperidone was administered 60 min before any of the test compounds. Domperidone is an antidopaminergic drug that suppresses nausea and vomiting. Locomotor activity was assessed using test cages that are comprised of 8 photo-electric switches comprised of 8 infra-red beams which are strategically placed in the cage and interruption of a beam is recorded as one count. […] The assessment of motor disability was performed by a trained observer blinded to the treatment.
The dose chosen for this challenge is at the top of the dose response curve for this drug.

[6] = read-out: intrinsic activity (efficacy)

For `CCCN1CCC[C@@H]2Cc3c(ccc(O)c3O)C[C@H]21` [compound 10, (4aR,10aR)-1-n-Propyl-1,2,3,4,4a,5,10,10a-octahydro-benzo[g]quinoline-6,7-diol hydrobromide], the “mean AIM score (day 19)” value ([1]; group 1: compound 10 0.0013 mg/kg SC days 1-14, then compound 10 0.0013 mg/kg SC days 15-19) was 25, the “mean AIM score (day 19)” value ([1]; group 2: L-DOPA/Benserazide 6/15 mg/kg SC days 1-14, then compound 10 0.0013 mg/kg SC days 15-19) was 18 and the “mean AIM score (day 19)” value ([1]; group 3: apomorphine 1 mg/kg SC days 1-14, then compound 10 0.0013 mg/kg SC days 15-19) was 39. For the same molecule, the “dyskinesia score (AIMS)” value ([1]; once daily SC, scored days 1-12) was “about 30”, the “mean number of rotations over 3 h” value ([2]; 0.1 mg/kg buccally) was 1203 and the induction of rotation ([2]; apomorphine subcutaneous, compound 10 buccal) was “induced circling behavior”. For the same molecule, the EC50 [3] was 15.5 nM, the Emax [3, 6] was 100% and the “MED (minimum effective dose to induce rotation)” value ([4]; dosed SC, 6-OHDA rats) was 0.65 µg/kg. The “MEDNemonapride (MED to overcome Nemonapride block)” value ([4]; dosed SC, 6-OHDA rats, * = rotations could not be blocked by SCH23390) was 1.3 µg/kg, the “mixed D1/D2 ratio” value ([4]; subcutaneous, 6-OHDA rat rotation model) was “about 2” and the “reversal of motility deficits” value (MPTP/AMPT mouse model; MPTP/AMPT mice, all dosed subcutaneously) was “restored locomotion in the mice in a dose-dependent manner”. The “activity count (0.5-1.5 h)” value (MPTP/AMPT mouse model; Table 4c, 0.003 mg/kg SC, controls: vehicle 405, AMPT/vehicle 12) was 8, the “activity count (0.5-1.5 h)” value (MPTP/AMPT mouse model; Table 4c, 0.01 mg/kg SC) was 228 and the “activity count (0.5-1.5 h)” value (MPTP/AMPT mouse model; Table 4c, 0.03 mg/kg SC) was 440. For the same molecule, the “activity count (0.5-1.5 h)” value (MPTP/AMPT mouse model; Table 4e direct comparison, apomorphine 1 mg/kg SC, pramipexole 1 mg/kg SC, compound 10 0.030 mg/kg SC, controls: vehicle 509, AMPT/vehicle 2) was 690, the EC50 (human D2 receptor) was 0.11 nM and the Emax (human D2 receptor; [6]) was 100%. For the same molecule, the EC50 [5] was 0.06 nM, the Emax ([5]; CHO-Ga16, read-out: intrinsic activity (efficacy)) was 95% and the “disability score (60 min)” value (MPTP treated marmosets; 0.001 mg/kg SC) was 14.3. For the same molecule, the “disability score (120 min)” value (MPTP treated marmosets; 0.001 mg/kg SC) was 2.3, the “disability score (180 min)” value (MPTP treated marmosets; 0.001 mg/kg SC) was 2.5 and the “disability score (240 min)” value (MPTP treated marmosets; 0.001 mg/kg SC) was 3.0. The “disability score (300 min)” value (MPTP treated marmosets; 0.001 mg/kg SC) was 2.5, the “disability score (360 min)” value (MPTP treated marmosets; 0.001 mg/kg SC) was 6.5 and the “disability score (420 min)” value (MPTP treated marmosets; 0.001 mg/kg SC) was 8.5. For the same molecule, the “disability score (60 min)” value (MPTP treated marmosets; 0.01 mg/kg SC) was 10.0, the “disability score (120 min)” value (MPTP treated marmosets; 0.01 mg/kg SC) was 2.2 and the “disability score (180 min)” value (MPTP treated marmosets; 0.01 mg/kg SC) was 2.0. For the same molecule, the “disability score (240 min)” value (MPTP treated marmosets; 0.01 mg/kg SC) was 2.2, the “disability score (300 min)” value (MPTP treated marmosets; 0.01 mg/kg SC) was 2.7 and the “disability score (360 min)” value (MPTP treated marmosets; 0.01 mg/kg SC) was 2.3. For the same molecule, the “disability score (420 min)” value (MPTP treated marmosets; 0.01 mg/kg SC) was 2.7 and the “effect on locomotor activity and motor disability” value (MPTP treated marmosets; L-DOPA 12.5 mg/kg p.o., compound 10 0.001 or 0.01 mg/kg SC) was “dose-related increase in locomotor activity and reversal of motor disability”.
